US20220152028A1, “COMBINATION DRUG TREATMENT FOR HUMAN CYTOMEGALOVIRUS” (Microbiotix, Inc., priority 2019, published 2022)

Legend:
HCMV (strain AD169) = experiment: Plaque reduction assay in HFF cells infected with HCMV strain AD169; format: cell-based, human cytomegalovirus; details: Human betaherpesvirus 5, 216 h, plaque count after 9 days, read-out: EC50, compound tested separately
Experimental: We examined the in vitro anti-HCMV (strain AD169; ATCC #VR-538) activity of filociclovir and letermovir both separately and as triplicate combinations at a concentration range of 0.0064-100 μM, and 0.0064-100 nM, respectively.
Monolayers of human foreskin fibroblasts (HFF cells; ATCC #SCRC-1041) were grown in 1 ml of DMEM (Corning #10-013-CM) containing 10% heat-inactivated fetal bovine serum (Gibco #A38402-01) and 1% penicillin-streptomycin solution (Hyclone #SV30010) in 24-well plates and infected with 100 plaque forming units (PFUs) of HCMV. Following incubation for 1 hr at 37° C., the virus was aspirated and replaced with MEM (Corning #50-010-PB) containing 1% methyl cellulose (Sigma #M-0521) and the various concentrations of filociclovir and letermovir were added as set forth above. A set of wells, designated as non-treated controls, received neither of the two compounds.
Infected plates were incubated for 9 days at 37° C., then fixed and stained with crystal violet stain (0.1% in 20% methanol). The number of plaques in each well was counted and the level of synergism was assessed using MacSynergy™ II (Prichard and Shipman 1990, supra), which provides an overall evaluation of the deviation from the theoretical additive effect of both drugs based on individual dose-response curves.

HCMV = details: literature statement; cited from earlier work
[1] = test system: HCMV control strain UL56 wt; experiment: SEAP reporter susceptibility assay in ARPEp cells, baseline strain; format: cell-based, human cytomegalovirus; details: Human betaherpesvirus 5, 144 h, read-out: Mean EC50
Text: (§1) These UL56 amino acid substitutions were introduced into the bacterial artificial chromosome (BAC) clone BD2 of HCMV laboratory strain AD169 modified with a secreted alkaline phosphatase (SEAP) reporter gene, as previously described (Chou, S., Antimicrob. Agents Chemother., 59: 6588-6593 (2015)). The mutagenized BAC clones were transfected into modified retinal epithelial (ARPEp) cells and the recovered infectious recombinant viruses were then genotyped and phenotyped as previously described (Chou et al., Antimicrob. Agents Chemother., 62(9): e00922-18 (2018)).
(§2) Control strains included a baseline strain of wild-type UL56 and a UL97 M460V mutant that is resistant to […]. For susceptibility assays, calibrated viral inocula were added to 24-well plate cultures of ARPEp cells and incubated under a series of filociclovir concentrations, and the concentrations required to reduce SEAP activity by 50% (EC50) at 6 days were determined in duplicate assays on each of 3 to 5 setup dates.

HCMV UL56 mutant C325F = experiment: SEAP reporter susceptibility assay in ARPEp cells, UL56 C325F; format: cell-based, human cytomegalovirus
Text: (§3) In order to test the effect of filociclovir on letermovir-resistant strains, we used 4 HCMV UL56 mutants encountered in clinical practice: V231L, V236M, C325F and C325Y, the latter 2 of which commonly emerged to confer absolute letermovir resistance (Grantham et al., Biol. Blood Marrow Transplant. 25: S344-S345 (2019); Turner et al., Antimicrob. Agents Chemother., 63(3): e02337-18 (2019)).
as §1, §2

HCMV UL56 mutant C325Y = experiment: SEAP reporter susceptibility assay in ARPEp cells, UL56 C325Y; format: cell-based, human cytomegalovirus
Text: as §3, §1, §2

HCMV UL97 M460V mutant = experiment: SEAP reporter susceptibility assay in ARPEp cells, UL97 M460V; format: cell-based, human cytomegalovirus
Text: as §1, §2

HCMV UL56 mutant V236M = experiment: SEAP reporter susceptibility assay in ARPEp cells, UL56 V236M; format: cell-based, human cytomegalovirus
Text: as §3, §1, §2

HCMV UL56 mutant V231L = experiment: SEAP reporter susceptibility assay in ARPEp cells, UL56 V231L; format: cell-based, human cytomegalovirus
Text: as §3, §1, §2

[2] = test system: HCMV UL56 mutants (V231L, V236M, C325F, C325Y); experiment: SEAP reporter susceptibility assay in ARPEp cells, UL56 mutants as a group; format: cell-based, human cytomegalovirus; details: Human betaherpesvirus 5, read-out: mean EC50 values against the UL56 mutants tested
Text: as §3, §1, §2

HCMV DNA polymerase UL54 = HCMV DNA polymerase UL54 (Human cytomegalovirus, UniProt P08546); details: higher than GCV-TP; cited from earlier work
[3] = Human betaherpesvirus 5, 144 h, read-out: Mean EC50

HCMV DNA polymerase UL54, sequence (P08546 whole entry): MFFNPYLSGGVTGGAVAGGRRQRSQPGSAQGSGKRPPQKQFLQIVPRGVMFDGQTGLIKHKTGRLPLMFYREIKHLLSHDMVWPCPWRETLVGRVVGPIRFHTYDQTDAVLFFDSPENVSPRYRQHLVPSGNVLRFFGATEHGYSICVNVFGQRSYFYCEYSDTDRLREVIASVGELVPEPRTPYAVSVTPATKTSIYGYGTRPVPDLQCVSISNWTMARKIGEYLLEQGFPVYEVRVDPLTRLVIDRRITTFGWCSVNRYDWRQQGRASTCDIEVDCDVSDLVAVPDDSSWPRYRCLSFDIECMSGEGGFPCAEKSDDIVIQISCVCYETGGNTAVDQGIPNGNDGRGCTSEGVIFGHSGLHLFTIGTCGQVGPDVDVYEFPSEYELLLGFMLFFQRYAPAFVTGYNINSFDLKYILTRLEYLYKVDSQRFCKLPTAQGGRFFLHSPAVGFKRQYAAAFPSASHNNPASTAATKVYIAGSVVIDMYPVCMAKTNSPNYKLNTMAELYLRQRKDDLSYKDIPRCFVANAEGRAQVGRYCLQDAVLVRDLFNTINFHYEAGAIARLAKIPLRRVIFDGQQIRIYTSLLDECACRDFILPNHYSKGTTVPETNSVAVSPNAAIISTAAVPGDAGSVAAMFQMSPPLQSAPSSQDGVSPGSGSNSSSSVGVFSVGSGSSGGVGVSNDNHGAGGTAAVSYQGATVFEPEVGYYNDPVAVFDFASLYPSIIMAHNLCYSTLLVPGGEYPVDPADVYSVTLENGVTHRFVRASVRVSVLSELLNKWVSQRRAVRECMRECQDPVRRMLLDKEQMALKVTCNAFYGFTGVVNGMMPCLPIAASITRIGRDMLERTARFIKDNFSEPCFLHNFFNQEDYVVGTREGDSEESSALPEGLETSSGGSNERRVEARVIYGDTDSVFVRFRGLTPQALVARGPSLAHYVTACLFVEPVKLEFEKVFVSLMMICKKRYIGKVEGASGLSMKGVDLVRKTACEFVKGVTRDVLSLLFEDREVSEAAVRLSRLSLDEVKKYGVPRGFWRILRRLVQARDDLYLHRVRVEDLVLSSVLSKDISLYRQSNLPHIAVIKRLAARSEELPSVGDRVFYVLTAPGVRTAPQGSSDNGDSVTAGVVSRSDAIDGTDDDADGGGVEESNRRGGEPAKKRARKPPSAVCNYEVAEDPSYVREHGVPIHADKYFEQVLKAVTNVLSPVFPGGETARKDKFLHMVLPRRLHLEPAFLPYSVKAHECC

SMILES | EC50 (HCMV (strain AD169)) | EC50 values (HCMV) | EC50 [1] | EC50 (HCMV UL56 mutant C325F; [3]) | Ratio = EC50 of mutant/EC50 of wild type control (HCMV UL56 mutant C325F; UL56 C325F) | EC50 (HCMV UL56 mutant C325Y; [3]) | Ratio = EC50 of mutant/EC50 of wild type control (HCMV UL56 mutant C325Y; UL56 C325Y) | EC50 (HCMV UL97 M460V mutant; [3]) | Ratio = EC50 of mutant/EC50 of wild type control (HCMV UL97 M460V mutant; UL97 M460V) | EC50 (HCMV UL56 mutant V236M; [3]) | Ratio = EC50 of mutant/EC50 of wild type control (HCMV UL56 mutant V236M; UL56 V236M) | EC50 (HCMV UL56 mutant V231L; [3]) | Ratio = EC50 of mutant/EC50 of wild type control (HCMV UL56 mutant V231L; UL56 V231L) | EC50 [2] | affinity to HCMV DNA polymerase UL54 relative to GCV-TP (HCMV DNA polymerase UL54)
COc1cccc(N2CCN(C3=Nc4c(F)cccc4[C@H](CC(=O)O)N3c3cc(C(F)(F)F)ccc3OC)CC2)c1 [letermovir, 2-[(4S)-8-fluoro-2-[4-(3-methoxyphenyl)piperazin-1-yl]-3-[2-methoxy-5-(trifluoromethyl)phenyl]-4H-quinazolin-4-yl]acetic acid, reference compound] | 3 nM | nanomolar range | – | – | – | – | – | – | – | – | – | – | – | – | –
Nc1nc2c(ncn2/C=C2/CC2(CO)CO)c(=O)[nH]1 [Filociclovir, (Z)-9-{[2,2-bis-(hydroxymethyl)cyclopropylidene]methyl}guanine] | 550 nM | – | 430 nM | 350 nM | 0.82 | 380 nM | 0.89 | 2030 nM | 4.8 | 350 nM | 0.81 | 290 nM | 0.69 | 290 to 380 nM | –
Nc1nc2c(ncn2/C=C2/CC2(CO)COP(=O)(O)OP(=O)(O)OP(=O)(O)O)c(=O)[nH]1 (stereo not shown) [FCV-TP, FCV triphosphate] | – | – | – | – | – | – | – | – | – | – | – | – | – | – | about 10 fold
